Structures can show the parent of a compound that is named as a salt. Where two headings read alike, the source gives them in different places.
Tests used:
[1] = target: T1, dopamine (DA) reuptake in synaptosomes (Rattus norvegicus, UniProt P23977); assay: In vitro inhibition of dopamine (DA) reuptake in synaptosomes; type: biochemical
T1 construct: in synaptosomes as described in WO 97/16451; from tissue

[2] = target: T2, noradrenaline (NA) reuptake in synaptosomes (Rattus norvegicus, UniProt Q63380); assay: In vitro inhibition of noradrenaline (NA) reuptake in synaptosomes; type: biochemical
T2 construct: in synaptosomes as described in WO 97/16451; from tissue
T2 sequence (Q63380 1-617): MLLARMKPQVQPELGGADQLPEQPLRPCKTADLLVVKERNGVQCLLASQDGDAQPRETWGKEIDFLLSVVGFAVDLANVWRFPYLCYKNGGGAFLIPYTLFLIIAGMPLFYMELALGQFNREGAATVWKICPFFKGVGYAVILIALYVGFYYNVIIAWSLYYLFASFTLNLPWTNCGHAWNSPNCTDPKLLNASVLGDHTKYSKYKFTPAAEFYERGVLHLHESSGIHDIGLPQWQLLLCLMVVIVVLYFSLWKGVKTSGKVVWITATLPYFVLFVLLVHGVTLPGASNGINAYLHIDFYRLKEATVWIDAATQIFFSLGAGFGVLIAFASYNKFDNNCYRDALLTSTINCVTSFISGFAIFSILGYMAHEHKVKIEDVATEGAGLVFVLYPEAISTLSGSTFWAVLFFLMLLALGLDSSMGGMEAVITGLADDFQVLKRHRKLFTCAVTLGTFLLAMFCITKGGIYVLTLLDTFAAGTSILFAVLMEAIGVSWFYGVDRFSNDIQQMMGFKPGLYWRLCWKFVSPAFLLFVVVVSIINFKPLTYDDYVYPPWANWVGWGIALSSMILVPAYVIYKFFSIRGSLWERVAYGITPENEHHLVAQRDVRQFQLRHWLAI

[3] = target: T3, serotonine (5-HT) reuptake in synaptosomes (Rattus norvegicus, UniProt P31652); assay: In vitro inhibition of serotonine (5-HT) reuptake in synaptosomes; type: biochemical
T3 construct: in synaptosomes as described in WO 97/16451; from tissue
T3 sequence (P31652 whole entry): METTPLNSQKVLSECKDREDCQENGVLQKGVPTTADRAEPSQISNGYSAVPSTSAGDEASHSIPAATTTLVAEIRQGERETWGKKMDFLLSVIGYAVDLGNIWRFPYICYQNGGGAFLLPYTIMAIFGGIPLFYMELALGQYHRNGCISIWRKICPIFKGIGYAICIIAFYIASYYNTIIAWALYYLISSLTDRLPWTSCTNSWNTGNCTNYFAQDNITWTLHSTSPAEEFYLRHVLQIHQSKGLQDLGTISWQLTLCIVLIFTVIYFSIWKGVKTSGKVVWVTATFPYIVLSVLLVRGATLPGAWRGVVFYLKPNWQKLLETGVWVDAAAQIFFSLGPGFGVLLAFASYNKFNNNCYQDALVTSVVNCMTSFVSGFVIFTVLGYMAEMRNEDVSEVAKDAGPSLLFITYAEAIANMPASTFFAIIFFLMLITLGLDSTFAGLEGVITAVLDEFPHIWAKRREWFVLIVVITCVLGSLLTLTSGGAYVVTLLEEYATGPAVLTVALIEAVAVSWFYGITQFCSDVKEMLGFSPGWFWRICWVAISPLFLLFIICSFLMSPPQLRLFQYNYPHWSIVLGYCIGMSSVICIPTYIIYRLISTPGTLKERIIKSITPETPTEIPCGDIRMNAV
Protocol: A number of compounds were tested for their ability to inhibit the reuptake of the monoamine neurotransmitters dopamine (DA) noradrenaline (NA) and serotonine (5-HT) in synaptosomes as described in WO 97/16451.
The test values are given as IC50 (the concentration (μM) of the test substance which inhibits the specific binding of ^3H-DA, ^3H-NA, or ^3H-5-HT by 50%).

[4] = synaptosomes, 3H-DA, read-out: DA-uptake IC50
[5] = synaptosomes, 3H-NA, read-out: NA-uptake IC50

T1 sequence (P23977 whole entry): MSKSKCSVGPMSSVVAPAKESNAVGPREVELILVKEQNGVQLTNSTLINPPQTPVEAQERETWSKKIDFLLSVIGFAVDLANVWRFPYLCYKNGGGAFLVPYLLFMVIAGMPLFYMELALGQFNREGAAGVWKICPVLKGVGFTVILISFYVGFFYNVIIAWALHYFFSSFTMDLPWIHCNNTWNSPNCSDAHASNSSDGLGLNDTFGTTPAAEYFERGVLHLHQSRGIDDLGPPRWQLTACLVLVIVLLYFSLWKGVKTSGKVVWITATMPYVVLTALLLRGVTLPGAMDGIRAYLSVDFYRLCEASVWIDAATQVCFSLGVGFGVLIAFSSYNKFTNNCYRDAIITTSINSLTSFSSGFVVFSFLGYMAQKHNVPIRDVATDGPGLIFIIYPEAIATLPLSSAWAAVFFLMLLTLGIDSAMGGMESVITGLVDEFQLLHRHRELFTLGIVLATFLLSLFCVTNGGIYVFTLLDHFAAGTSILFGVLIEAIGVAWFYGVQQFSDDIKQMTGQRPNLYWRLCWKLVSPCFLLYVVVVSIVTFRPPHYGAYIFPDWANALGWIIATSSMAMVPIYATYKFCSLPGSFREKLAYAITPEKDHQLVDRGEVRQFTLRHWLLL

## COc1ccc2cc(N3CC4CCC(C3)N4C)ccc2c1 (as salt: fumaric acid salt) [1st compound of method B, 3-(6-Methoxy-naphthalen-2-yl)-8-methyl-3,8-diaza-bicyclo[3.2.1]octane]
other
  melting point: 204 to 206 °C

## CN1C2CCC1CN(c1ccc3ccccc3n1)C2 (as salt: fumaric acid salt) [2nd compound of method A, 2-(8-Methyl-3,8-diaza-bicyclo[3.2.1]oct-3-yl)-quinoline]
other
  melting point: 210 to 212 °C

## CN1C2CCC1CN(c1ccc3cc([N+](=O)[O-])ccc3n1)C2 [1st compound of method A, 2-(8-Methyl-3,8-diaza-bicyclo[3.2.1]oct-3-yl)-6-nitro-quinoline]
[1]; [4]
  IC50: 16000 nM
other
  melting point: 152.1 to 154.5 °C
[2]; [5]
  IC50: 4600 nM
[3]
  IC50: 3.1 nM

## COc1ccc2cc(N3CC4CCC(C3)N4C)ccc2c1 [1st compound of method B, 3-(6-Methoxy-naphthalen-2-yl)-8-methyl-3,8-diaza-bicyclo[3.2.1]octane]
[1]
  IC50: 56 nM
[2]
  IC50: 20 nM
[3]; synaptosomes, 3H-5-HT, read-out: 5-HT-uptake IC50
  IC50: 20 nM

## CN1C2CCC1CN(c1ccc3ccccc3n1)C2 [2nd compound of method A, 2-(8-Methyl-3,8-diaza-bicyclo[3.2.1]oct-3-yl)-quinoline]
[1]; [4]
  IC50: 1600 nM
[2]; [5]
  IC50: 450 nM
[3]
  IC50: 16 nM

— US7704991B2, “Substituted diazabicyclo derivatives and their use as monoamine neurotransmitter re-uptake inhibitors” (Neurosearch A/S, priority 2005, dated 2010)
